Data as given in US20100021895A1, “Vectors for Inducing Homozygous Mutations and Methods of Using Same” (priority 2006, published 2010).

Tests used:
[1] = test system: HSV thymidine kinase (TK) gene in cells containing an entrapment mutation in the Hesx1 gene; test: TK gene loss, selection in gancyclovir; format: cell-based, mouse
[2] = test system: mouse embryonic stem cell clones, each containing a neomycin resistance gene (Neo) inserted by the GTR1.3 gene trap retrovirus; test: Carcinogen-induced LOH: frequency of colony formation in 2.0 mg/ml G418; format: cell-based; conditions: for fold increase of frequency of colony formation: 2 mg/ml G418 0.25 mM HU
Method: Carcinogen-induced LOH was measured in a panel of 53 mouse embryonic stem cell clones, each containing a neomycin resistance gene (Neo) inserted into a different cellular gene (FIG. 9) by the GTR1.3 gene trap retrovirus. Gene entrapment by GTR1.3 involves selection for inserted Neo sequences that can splice to the 3′ ends of cellular genes (Lin et al.,). The disrupted genes were identified by sequencing Neo-gene fusion transcripts and were localized on the mouse genome. Previous studies have shown that cells homozygous for GTR1.3-induced mutations can be selected from heterozygous cells simply by selecting for resistance to higher concentrations of G418, a method first shown to select for homozygous mutations induced by gene targeting (15). Mitotic recombination appears to be the preferred mechanism of spontaneous LOH involving Neo genes inserted in ES cells (17) and LOH involving other genes and cell types in vivo (12, 13). LOH doubles the number of Neo genes per cell and thus allows moderately resistant cells to acquire resistance to higher concentrations of G418. The frequencies of spontaneous LOH measured at the 53 different sites ranged from 1.3×10^−5 to 1.2×10^−4 (Table 3), similar to those reported for other inserted neomycin resistance genes (15, 17) in ES cells and for loci such as TK and APRT in other cell types (12, 13).
A variety of chemical agents were tested for their ability to enhance the frequencies at which mutant cells survive in 2.0 mg/ml G418. Methyl-nitrosurea (MNU) is an alkylating agent that produces a variety of mono-methylated DNA adducts, hydroxyurea (HU) stalls DNA replication complexes, doxorubicin interferes with DNA synthesis, methothrexate is a competitive inhibitor of dihydrofolate reductase but is not genotoxic, diepoxybutane and mitomycin C induce inter-strand DNA crosslinks, UV irradiation causes intra- and inter-strand pyrimidine dimmers, and ethidium bromide intercalates between DNA strands to damage DNA (For additional information about these agents see http://toxnet.nlm.nih.gov and http://lisntweb.swan.ac.uk/cmgt/index.htm). […] The fold-increase for MNU and HU ranged from 39-123 and 18-68, respectively (Table 3). The optimal concentrations of each agent to stimulate colony formation with minimal toxicity (<5% loss of cell viability) were determined in advance (FIG. 13). […] Each of these agents was tested two or more times on at least 25 entrapment lines.
Serially diluted cells were plated onto 150 mm plates containing drug-free media and allowed to attach overnight. Unattached cells were removed and media containing the indicated concentrations of methyl-nitrosourea, hydroxyurea, ethidium bromide, doxorubicin, methotrexate, diepoxybutane, or mitomycin C was put onto cells for 4 hours (or cells were exposed to ultraviolet light in the absence of media and allowed to recover in drug-free media for 4 hours). Cells were then rinsed twice with drug-free media and selection media containing 0.0, 0.3, or 2.0 mg/ml G418 was put onto cells. After 12 days of selection, the number of colonies surviving was counted and the frequency of colony formation was determined by dividing the number of colonies obtained from 2.0 mg/ml G418 selection to that obtained from parallel experiments with 0.3 mg/ml G418 selection. TK gene loss was assessed following selection in media containing 2 μg/ml gancyclovir.
Table 3. The frequency of colony formation in high concentrations of G418. The frequency of colony formation is listed for all 53 clones examined. Frequency was determined by dividing the number of colonies surviving 2.0 mg/ml G418 selection to the number surviving parallel experiments with 0.3 mg/ml G418 selection, and is the average of at least 3 independent experiments for each clone. Standard deviations, which ranged from 5 to 70% of the mean values, have been omitted for clarity. […]

## NC(=O)NO [HU, hydroxyurea]
[1]; Table 2, C8TK1sN and C8TK1hN, Treatment none
  Ratio of Freq. TK loss: 0.6
[1]; Table 4, clone printed C8TK1hN (EL LOH induced by HU), Treatment HU
  Freq. TK loss: 4.9 × 10^−4
[1]; Table 4, clone printed C8TK1hN (EL LOH induced by HU, TK+ EL−/−), Treatment none
  Freq. TK loss: 1.2 × 10^−5
[1]; Table 4, clone printed C8TK1sN (Spont. EL LOH), Treatment HU
  Freq. TK loss: 2.8 × 10^−4
[1]; Table 4, printed C8TK1sN and C8TK1hN, Treatment HU
  Ratio of Freq. TK loss: 1.8
[1]; Table 4, printed C8TK1sN and C8TK1hN, Treatment none
  Ratio of Freq. TK loss: 2.3
[2]; 0.25 mM HU, Table 3 clones
  fold-increase of colonies surviving in high G418, range over clones: 18-68 fold
[2]; 0.5 mM MNU or 0.25 mM HU (FIG. 10)
  number of colonies surviving in high G418: dramatically increased
[2]; clone b2p1-a5 (12C3)
  fold increase of frequency of colony formation: (+35-fold)
[2]; clone b2p1-a9 (2H1)
  fold increase of frequency of colony formation: (+36-fold)
[2]; clone b2p1-b4 (9E1)
  fold increase of frequency of colony formation: (+32-fold)
[2]; clone b2p1-b9 (4B1)
  fold increase of frequency of colony formation: (+38-fold)
[2]; clone b2p1-c6 (19A)
  fold increase of frequency of colony formation: (+22-fold)
[2]; clone b2p1-d3 (19C1)
  fold increase of frequency of colony formation: (+28-fold)
[2]; clone b2p1-d8 (4D2.3)
  fold increase of frequency of colony formation: (+40-fold)
[2]; clone b2p1-d9 (7E3)
  fold increase of frequency of colony formation: (+38-fold)
[2]; clone b2p1-d10 (9A1)
  fold increase of frequency of colony formation: (+19-fold)
[2]; clone b2p1-e3 (4D2.3)
  fold increase of frequency of colony formation: (+32-fold)
[2]; clone b2p1-e10 (19C1)
  fold increase of frequency of colony formation: (+25-fold)
[2]; clone b2p1-f3 (17E1.3)
  fold increase of frequency of colony formation: (+47-fold)
[2]; clone b2p1-f10 (3F2.1)
  fold increase of frequency of colony formation: (+33-fold)
[2]; clone b2p1-f12 (1H5)
  fold increase of frequency of colony formation: (+25-fold)
[2]; clone b2p1-h1 (7A2)
  fold increase of frequency of colony formation: (+21-fold)
[2]; clone b2p1-h5 (1H5)
  fold increase of frequency of colony formation: (+42-fold)
[2]; clone b2p1-h8 (6A3.3)
  fold increase of frequency of colony formation: (+42-fold)
[2]; clone b3p1-h1 (18E2)
  fold increase of frequency of colony formation: (+42-fold)
[2]; clone b3p3-a4 (4A5)
  fold increase of frequency of colony formation: (+33-fold)
[2]; clone b3p3-a9 (4A5)
  fold increase of frequency of colony formation: (+18-fold)
[2]; clone b3p3-b6 (3F1)
  fold increase of frequency of colony formation: (+18-fold)
[2]; clone b3p3-c8 (14A3)
  fold increase of frequency of colony formation: (+32-fold)
[2]; clone b3p3-c12 (5G2)
  fold increase of frequency of colony formation: (+20-fold)
[2]; clone b3p3-d4 (1C3)
  fold increase of frequency of colony formation: (+28-fold)
[2]; clone b3p3-d8 (1C2)
  fold increase of frequency of colony formation: (+68-fold)
[2]; clone b3p3-d9 (4E2)
  fold increase of frequency of colony formation: (+22-fold)
[2]; clone b3p3-g6 (10C2)
  fold increase of frequency of colony formation: (+29-fold)
[2]; clone b3p3-g10 (4E1)
  fold increase of frequency of colony formation: (+24-fold)
[2]; clone b3p3-h2 (19C1)
  fold increase of frequency of colony formation: (+26-fold)
[2]; clone b3p3-h4 (5E2)
  fold increase of frequency of colony formation: (+50-fold)
[2]; clone b3p3-h8 (19A)
  fold increase of frequency of colony formation: (+37-fold)
[2]; clone b3p4-a1 (4A4)
  fold increase of frequency of colony formation: (+25-fold)
[2]; clone b3p4-a5 (3B)
  fold increase of frequency of colony formation: (+36-fold)
[2]; clone b3p4-b1 (3A2)
  fold increase of frequency of colony formation: (+44-fold)
[2]; clone b3p4-b2 (11B1.3)
  fold increase of frequency of colony formation: (+40-fold)
[2]; clone b3p4-b8 (4C6)
  fold increase of frequency of colony formation: (+27-fold)
[2]; clone b3p4-b12 (3A1)
  fold increase of frequency of colony formation: (+24-fold)
[2]; clone b3p4-c1 (17B3)
  fold increase of frequency of colony formation: (+50-fold)
[2]; clone b3p4-c2 (8C3)
  fold increase of frequency of colony formation: (+50-fold)
[2]; clone b3p4-c9 (15F2)
  fold increase of frequency of colony formation: (+20-fold)
[2]; clone b3p4-c12 (17E2)
  fold increase of frequency of colony formation: (+33-fold)
[2]; clone b3p4-d10 (14E5)
  fold increase of frequency of colony formation: (+54-fold)
[2]; clone b3p4-d12 (1C3)
  fold increase of frequency of colony formation: (+51-fold)
[2]; clone b3p4-e1 (2G3)
  fold increase of frequency of colony formation: (+32-fold)
[2]; clone b3p4-e3 (15D3)
  fold increase of frequency of colony formation: (+41-fold)
[2]; clone b3p4-e7 (12C1)
  fold increase of frequency of colony formation: (+44-fold)
[2]; clone b3p4-f2 (4E1)
  fold increase of frequency of colony formation: (+36-fold)
[2]; clone b3p4-f6 (7E3)
  fold increase of frequency of colony formation: (+26-fold)
[2]; clone b3p4-f10 (8A4)
  fold increase of frequency of colony formation: (+36-fold)
[2]; clone b3p4-g3 (1C3)
  fold increase of frequency of colony formation: (+34-fold)
[2]; clone b3p4-g8 (10C1)
  fold increase of frequency of colony formation: (+34-fold)
[2]; clone b3p4-g9 (2C2)
  fold increase of frequency of colony formation: (+32-fold)
[2]; clone b3p4-h11 (8A1.1)
  fold increase of frequency of colony formation: (+33-fold)
[2]; ES cells heterozygous for Xrcc5 entrapment mutation, 4 hours with 0.5 mM methyl-nitrosourea, 0.25 mM hydroxyurea or 100 ng/ml diepoxybutane
  survival of mutant ES cells in media containing 2.0 mg/ml G418: enhances the survival
[2]; single exposure to non-toxic levels
  overall extent of LOH induced: ~1 % of the genome
